Test [1] is described as follows: THP-1 cell cytotoxicity, dose response, cytotoxicity control for non-replicating M. tuberculosis project (AID 489025). The format is functional.
Test [2] is described as follows: HepG2 cell cytotoxicity, dose response, cytotoxicity control for non-replicating M. tuberculosis project (AID 489018). The format is functional. As to conditions: Mycobacterium tuberculosis.
The nature of test [3]: Vero E6 cell cytotoxicity, dose response, cytotoxicity control for non-replicating M. tuberculosis project, secondary assay (AID 492998). The format is functional, VeroE6. As to conditions: Vero C1008.
Another test deals with T1, X-box-binding protein 1 (Homo sapiens, UniProt P17861).
T1 sequence (P17861 whole entry): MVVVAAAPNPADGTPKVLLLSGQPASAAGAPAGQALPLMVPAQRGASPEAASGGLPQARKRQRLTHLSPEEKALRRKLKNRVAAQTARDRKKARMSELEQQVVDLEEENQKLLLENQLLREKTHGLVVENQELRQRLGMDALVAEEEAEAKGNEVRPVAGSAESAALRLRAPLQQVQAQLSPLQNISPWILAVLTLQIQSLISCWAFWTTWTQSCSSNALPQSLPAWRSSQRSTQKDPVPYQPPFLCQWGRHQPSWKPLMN
The format is functional, Cricetulus griseus.

A further test in a line: cells. The format is functional.
Test [4] has as its target T2, Insulin-degrading enzyme (Homo sapiens, UniProt P14735).
T2 sequence (P14735 whole entry): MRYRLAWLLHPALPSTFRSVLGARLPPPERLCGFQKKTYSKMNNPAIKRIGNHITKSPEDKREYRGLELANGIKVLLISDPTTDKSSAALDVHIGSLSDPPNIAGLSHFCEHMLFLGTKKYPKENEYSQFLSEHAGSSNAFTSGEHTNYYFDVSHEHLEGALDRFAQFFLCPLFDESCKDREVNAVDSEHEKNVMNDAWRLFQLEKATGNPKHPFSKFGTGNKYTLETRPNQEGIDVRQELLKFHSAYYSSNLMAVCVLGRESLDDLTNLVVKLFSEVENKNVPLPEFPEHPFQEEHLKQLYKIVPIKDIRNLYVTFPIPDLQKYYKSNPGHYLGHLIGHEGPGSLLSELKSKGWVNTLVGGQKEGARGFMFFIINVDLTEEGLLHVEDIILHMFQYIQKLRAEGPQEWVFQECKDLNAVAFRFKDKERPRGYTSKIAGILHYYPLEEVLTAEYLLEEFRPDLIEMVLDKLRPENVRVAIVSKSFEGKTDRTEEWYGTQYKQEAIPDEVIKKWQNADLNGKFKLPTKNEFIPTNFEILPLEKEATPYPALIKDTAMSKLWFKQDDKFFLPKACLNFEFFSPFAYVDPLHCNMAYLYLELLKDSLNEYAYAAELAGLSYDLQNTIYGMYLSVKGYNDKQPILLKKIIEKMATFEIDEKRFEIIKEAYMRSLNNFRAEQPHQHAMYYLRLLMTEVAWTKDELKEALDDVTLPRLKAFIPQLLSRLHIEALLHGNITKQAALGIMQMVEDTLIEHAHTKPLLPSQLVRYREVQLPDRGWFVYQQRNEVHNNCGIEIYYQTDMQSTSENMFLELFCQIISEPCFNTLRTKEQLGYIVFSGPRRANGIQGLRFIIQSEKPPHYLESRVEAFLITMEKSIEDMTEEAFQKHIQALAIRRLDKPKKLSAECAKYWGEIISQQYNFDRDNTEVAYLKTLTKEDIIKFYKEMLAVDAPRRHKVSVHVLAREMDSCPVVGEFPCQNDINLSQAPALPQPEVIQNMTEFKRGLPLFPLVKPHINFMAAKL
Briefly: recombinant IDE activation, cell-free – biochemical, fluorescence polarization, counter-screen for IDE activator project, dose response (AID 588681). (In general: Fluorescence polarisation rises when a labelled molecule tumbles more slowly, as on binding a larger partner.)

The target in test [5] is T2, Insulin-degrading enzyme. Briefly: cellular IDE activation of Abeta substrate cleavage – fluorescence polarization, HEK cells, dose response (AID 588439). The format is functional, cell-based.
Test [6] relates to HEK293. Briefly: membrane integrity loss in HEK cells – cell-based, fluorescence, cytotoxicity control for IDE activator project, dose response (AID 588440).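 Also: cytotoxicity by LDH release measuring loss of membrane integrity.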 The format is functional. As to conditions: Homo sapiens.
For test [7], the system named is HEK293. Briefly: optical interference in Abeta FP readout, dose response, artefact control for IDE activator project, biochemical, fluorescence polarization (AID 588442). The format is functional, cell-based. As to conditions: Homo sapiens.
A further test deals with Melanocortin receptor 4 (Homo sapiens, UniProt P32245). The class given is functional, cell-based.
Test [8] can be described thus: reduction of Shn3 3'UTR-driven luciferase in osteoblasts – cell-based, Clone20 osteoblasts, firefly luciferase, cherry-picked, dose response (AID 624132).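 Also: firefly luciferase luminescence from reporter carrying the Shn3 3'UTR in osteoblasts.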 The format is functional.
Test [9] can be described thus: loss of viability in HepG2 cells – cell-based, CellTiter-Glo, cherry-picked, cytotoxicity control for Shn3 inhibitor project, dose response (AID 624134). The format is functional. In general terms: ATP-based viability assays read luminescence as a measure of living cells.
The nature of test [10]: non-specific 3'UTR reporter inhibition in Clone20-Shn3RL – cell-based, Renilla luciferase, cherry-picked, counter-screen for Shn3 inhibitor project, dose response (AID 624133). The format is functional. (In general: A counterscreen serves to expose hits that act by an unwanted route or on another target.)
The target in the next test is Protein Wnt-3a (Mus musculus, UniProt P27467). As to the kind of experiment: antagonism of Wnt3a pathway luciferase reporter – Wnt-LIGHT cells, luminescence, selectivity assay for Gli-SUFU antagonist project, dose response (AID 651570).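 Also: Wnt-LIGHT reporter cells stimulated with conditioned medium from Wnt3a-producing cells.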 The format is functional. The note with it: read-out: IC50_Mean.
For test [11], the target named is T3, Corticotropin-releasing factor receptor 2/Corticotropin-releasing factor-binding protein (Homo sapiens, UniProt P24387+Q13324).
T3 sequence (Q13324 whole entry): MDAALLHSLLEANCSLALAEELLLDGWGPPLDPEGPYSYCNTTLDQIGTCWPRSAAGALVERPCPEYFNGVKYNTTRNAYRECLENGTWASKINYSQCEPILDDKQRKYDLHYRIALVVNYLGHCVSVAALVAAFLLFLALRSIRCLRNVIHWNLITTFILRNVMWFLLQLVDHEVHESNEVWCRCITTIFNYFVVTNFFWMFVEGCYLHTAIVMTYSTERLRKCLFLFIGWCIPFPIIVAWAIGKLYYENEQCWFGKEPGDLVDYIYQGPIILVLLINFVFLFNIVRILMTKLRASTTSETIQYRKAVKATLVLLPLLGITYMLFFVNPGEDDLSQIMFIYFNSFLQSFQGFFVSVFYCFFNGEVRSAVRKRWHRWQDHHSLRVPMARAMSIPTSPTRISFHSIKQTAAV
T3 sequence (P24387 whole entry): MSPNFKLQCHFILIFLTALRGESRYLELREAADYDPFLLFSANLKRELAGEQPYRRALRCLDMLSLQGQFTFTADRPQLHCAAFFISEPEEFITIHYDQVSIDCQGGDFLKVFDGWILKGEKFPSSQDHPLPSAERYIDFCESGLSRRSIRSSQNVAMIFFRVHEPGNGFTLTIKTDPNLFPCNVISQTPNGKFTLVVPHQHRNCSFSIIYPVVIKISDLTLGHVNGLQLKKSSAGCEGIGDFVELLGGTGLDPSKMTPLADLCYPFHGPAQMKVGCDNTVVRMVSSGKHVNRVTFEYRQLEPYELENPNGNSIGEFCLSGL
Briefly: Dose Response confirmation of uHTS hits for small molecule antagonists of the CRF-binding protein and CRF-R2 receptor complex. The note with it: read-out: IC50_Mean. The format is functional.

Test [12] concerns the target T3, Corticotropin-releasing factor receptor 2/Corticotropin-releasing factor-binding protein. As to the kind of experiment: activators of CRF receptor 2 with binding protein – uHTS hits, confirmation (AID 602473). The format is functional. As to conditions: read-out: EC50_Mean.
Test [13] in a line: blockers of CRF-binding protein–CRF-R2 complex – cell-based, uHTS hits, 384-well, dose response (AID 651639). As to conditions: read-out: IC50_Mean. The class given is functional, Homo sapiens.
The target in test [14] is T4, Low molecular weight phosphotyrosine protein phosphatase (Homo sapiens, UniProt P24666).
T4 sequence (P24666 whole entry): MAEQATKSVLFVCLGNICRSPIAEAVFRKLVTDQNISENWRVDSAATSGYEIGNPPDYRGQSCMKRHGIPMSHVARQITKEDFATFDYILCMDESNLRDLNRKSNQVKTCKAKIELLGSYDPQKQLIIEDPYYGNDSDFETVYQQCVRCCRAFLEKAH
The format is functional. As to conditions: read-out: IC50_Mean.

For test [15], the target named is T4, Low molecular weight phosphotyrosine protein phosphatase. The class given is functional. As to conditions: read-out: IC50_Mean. The source holds these as a separate data set.
Test [16] concerns the target T5, ATP-dependent translocase ABCB1 (Homo sapiens, UniProt P08183). As to the kind of experiment: inhibition of BCRP-mediated JC-1 efflux – Ig-MXP3 cells, flow cytometry, set 2, dose response (AID 504566).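 Also: flow cytometry median green fluorescence of retained JC-1 dye; potency of efflux pump inhibition measured as rising substrate retention.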 The class given is functional. The note with it: read-out: EC50_MICROM_.
The target in test [17] is T5, ATP-dependent translocase ABCB1. Briefly: P-gp JC-1 efflux blockade concentration-response – Jurkat-DNR cells, flow cytometry, set 2, dose response (AID 504569).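 Also: potency of pump inhibitors that raise cellular JC-1 green fluorescence up to the nicardipine level.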 The class given is functional. The note with it: read-out: EC50_MICROM_.

From ChEMBL document CHEMBL1201862, “PubChem BioAssay data set” (2004) come the findings set out here.

What is called CC50 is the concentration at which the toxic effect on the cells reaches its halfway point. As a reminder, the AC50 is the concentration giving half of the maximal activity seen.

Active and inactive are the calls of the source.
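For Absolute IC50 (XBP1) in this document: confirmatory dose-response counter-screen serving a CHOP assay.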

T5 sequence (P08183 whole entry): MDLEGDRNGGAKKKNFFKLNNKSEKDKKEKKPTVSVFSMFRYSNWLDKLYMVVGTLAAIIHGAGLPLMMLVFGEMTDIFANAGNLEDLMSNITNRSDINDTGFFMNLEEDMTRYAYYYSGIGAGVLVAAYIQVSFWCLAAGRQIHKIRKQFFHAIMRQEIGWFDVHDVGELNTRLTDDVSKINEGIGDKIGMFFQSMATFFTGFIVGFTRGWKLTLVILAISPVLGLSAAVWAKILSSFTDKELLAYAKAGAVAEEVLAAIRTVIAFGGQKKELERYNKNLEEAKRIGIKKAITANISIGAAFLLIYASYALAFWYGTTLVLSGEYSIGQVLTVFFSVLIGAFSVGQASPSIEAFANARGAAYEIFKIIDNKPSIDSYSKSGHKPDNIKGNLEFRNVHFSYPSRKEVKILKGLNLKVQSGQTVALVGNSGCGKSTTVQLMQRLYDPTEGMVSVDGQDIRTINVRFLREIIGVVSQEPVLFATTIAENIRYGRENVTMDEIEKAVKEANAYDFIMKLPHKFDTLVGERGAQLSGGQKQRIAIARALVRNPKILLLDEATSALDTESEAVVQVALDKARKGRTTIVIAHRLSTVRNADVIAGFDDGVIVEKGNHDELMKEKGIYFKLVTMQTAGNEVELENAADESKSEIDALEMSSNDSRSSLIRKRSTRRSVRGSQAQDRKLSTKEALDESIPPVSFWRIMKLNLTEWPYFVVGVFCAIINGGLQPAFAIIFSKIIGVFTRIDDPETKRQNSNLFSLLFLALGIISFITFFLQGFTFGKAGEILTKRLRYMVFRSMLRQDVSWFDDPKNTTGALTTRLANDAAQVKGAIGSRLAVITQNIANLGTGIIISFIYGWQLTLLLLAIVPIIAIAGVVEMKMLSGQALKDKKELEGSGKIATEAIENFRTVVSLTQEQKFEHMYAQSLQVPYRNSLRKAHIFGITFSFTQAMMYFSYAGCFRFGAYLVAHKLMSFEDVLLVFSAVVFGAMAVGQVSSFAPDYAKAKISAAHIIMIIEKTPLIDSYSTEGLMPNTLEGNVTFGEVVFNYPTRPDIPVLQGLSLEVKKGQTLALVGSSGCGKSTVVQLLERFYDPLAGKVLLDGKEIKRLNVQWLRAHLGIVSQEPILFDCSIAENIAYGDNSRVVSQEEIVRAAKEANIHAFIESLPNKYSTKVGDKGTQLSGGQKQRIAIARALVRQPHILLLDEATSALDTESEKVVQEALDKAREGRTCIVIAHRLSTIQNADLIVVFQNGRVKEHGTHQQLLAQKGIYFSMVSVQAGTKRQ
Chain of Protein Wnt-3a (P27467 whole entry): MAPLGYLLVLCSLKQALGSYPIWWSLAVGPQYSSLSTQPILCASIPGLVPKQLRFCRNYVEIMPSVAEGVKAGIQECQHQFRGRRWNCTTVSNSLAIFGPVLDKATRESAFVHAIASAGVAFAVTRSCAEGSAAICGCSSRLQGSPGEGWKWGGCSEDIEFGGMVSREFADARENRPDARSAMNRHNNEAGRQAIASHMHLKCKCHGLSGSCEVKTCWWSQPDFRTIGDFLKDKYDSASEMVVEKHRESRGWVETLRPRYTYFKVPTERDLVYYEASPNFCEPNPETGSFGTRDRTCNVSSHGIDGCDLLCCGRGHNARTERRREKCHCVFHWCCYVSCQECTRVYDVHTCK
Chain of Melanocortin receptor 4 (P32245 whole entry): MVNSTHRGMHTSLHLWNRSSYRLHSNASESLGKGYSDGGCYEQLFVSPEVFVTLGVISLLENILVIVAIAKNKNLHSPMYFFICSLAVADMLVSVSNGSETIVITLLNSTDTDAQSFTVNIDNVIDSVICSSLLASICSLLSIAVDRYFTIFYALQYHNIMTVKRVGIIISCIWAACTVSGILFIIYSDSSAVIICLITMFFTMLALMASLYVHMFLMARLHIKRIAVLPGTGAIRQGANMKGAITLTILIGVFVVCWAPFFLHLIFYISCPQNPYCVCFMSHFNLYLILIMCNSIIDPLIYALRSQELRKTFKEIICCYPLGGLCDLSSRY

For `Cc1c(CN2CCC(CO)(CCOc3ccccc3)CC2)[nH]c2c(Cl)cccc12`, the CC50 is 12.4 µM (active) in [1], 14.5 µM (active) in [2] and 16.3 µM (active) in test [3]. The “Absolute IC50 (XBP1)” value at X-box-binding protein 1 was 10 µM. Besides, the values for the IC50 in the test “cells” and with HEK293 [6] were 6.5 µM (active) and 22.8 µM (inactive), respectively. Besides, the EC50 on Insulin-degrading enzyme [4] is > 54.7 µM (inactive); on Insulin-degrading enzyme [5], 14.3 µM (inactive); with HEK293 [7], > 54.7 µM (inactive); on Melanocortin receptor 4 it was > 89.2 µM (inactive).
For `C=CCOC(=O)c1[nH]c2c(c1C)C(=O)CC(c1cc(OC)c(OC)c(OC)c1)C2` (stereo unspecified), the AC50 in test [8] is 1.83 µM (active); in test [9] it was 53.5 µM (active); in test [10], 1.28 µM (active). Also, at Protein Wnt-3a, the IC50 is 1.89 µM (active).
Consider `CCCOc1ccc(C(=O)N2CCN(c3ccc(NC(=O)CC)cc3Cl)CC2)cc1`, for which the values for the IC50 in test [11] and in [13] were 16 µM (active) and 16.3 µM (active), respectively. For the same compound, the EC50 in [12] is > 53 µM (inactive).
As to `COc1ccc(CN(C)C(=O)c2cccc(NC(=O)CC3SC(N4CCCCC4)=NC3=O)c2)c(OC)c1` (stereo unspecified), on Protein Wnt-3a, the IC50 was 21.7 µM (inactive).
Regarding `COc1ccccc1CNc1nc(NCc2cnc(C)cn2)c2sccc2n1`, the IC50 was 5.74 µM (active) in test [14] and 4.31 µM (active) in test [15].
For the compound `O=C(C1CCCCC1)N1CCN(c2cc(-c3ccccc3)nc3cc(-c4cccc(Cl)c4)nn23)CC1`, the results for the EC50 in [16] and in test [17] were 1.75 µM (active) and 1.71 µM (active), respectively.
For `O=C1C(=Cc2cn(-c3ccccc3)nc2-c2ccc(OCc3ccccc3F)cc2)SC(=S)N1CCS(=O)(=O)O`, the figures for the IC50 in test [14] and in test [15] were 12.2 µM (active) and 4.12 µM (active), respectively.
Turning to `COc1ccc(-c2cc3nc(C)cc(N4CCN(C(=O)c5ccco5)CC4)n3n2)cc1`, the EC50 was 1.52 µM (active) in test [16] and 4.78 µM (active) in test [17].
